The text below walks through data of ChEMBL document CHEMBL1145308 (Bioorg Med Chem Lett, 2006).

Data set [1] has as its target T1, Sodium- and chloride-dependent glycine transporter 2 (Homo sapiens, UniProt Q9Y345).
T1 sequence (Q9Y345 whole entry): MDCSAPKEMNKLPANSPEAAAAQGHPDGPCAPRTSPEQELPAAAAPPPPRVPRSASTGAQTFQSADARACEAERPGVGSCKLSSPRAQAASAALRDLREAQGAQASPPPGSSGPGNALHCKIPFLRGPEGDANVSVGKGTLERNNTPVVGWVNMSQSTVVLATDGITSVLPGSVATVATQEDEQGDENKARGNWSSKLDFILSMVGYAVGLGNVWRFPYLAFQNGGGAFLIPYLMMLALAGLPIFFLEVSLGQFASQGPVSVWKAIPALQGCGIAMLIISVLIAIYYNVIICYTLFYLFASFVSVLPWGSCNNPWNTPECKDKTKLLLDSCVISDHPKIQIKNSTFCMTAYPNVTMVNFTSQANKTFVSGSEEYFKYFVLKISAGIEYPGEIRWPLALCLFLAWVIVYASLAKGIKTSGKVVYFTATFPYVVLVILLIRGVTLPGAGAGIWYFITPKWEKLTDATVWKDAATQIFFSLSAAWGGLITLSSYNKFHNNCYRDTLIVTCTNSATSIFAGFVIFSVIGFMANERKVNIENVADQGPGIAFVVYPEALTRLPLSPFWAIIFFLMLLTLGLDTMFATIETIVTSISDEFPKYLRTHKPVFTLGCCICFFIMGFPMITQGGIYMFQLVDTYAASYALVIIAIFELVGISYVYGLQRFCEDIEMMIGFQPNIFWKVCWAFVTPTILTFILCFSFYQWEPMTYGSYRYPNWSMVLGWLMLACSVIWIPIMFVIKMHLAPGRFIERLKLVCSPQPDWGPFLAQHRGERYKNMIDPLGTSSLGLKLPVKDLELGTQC
As to the kind of experiment: (§1) Inhibition of [3H]glycine uptake at GlyT2.

The nature of data set [2]: in vitro. To be noted: mouse, microsomes, CL.
Description: Intrinsic clearance in mouse microsome
Data set [3] is described as follows: in vitro. The settings on record: human, microsomes, CL.
Description: Intrinsic clearance in human microsome
Data set [4] can be described thus: in vitro. The settings on record: mouse, microsomes, Max Achievable Bioavailability.
Description: Maximum achievable bioavailability in mouse microsome
The nature of data set [5]: in vitro. The settings on record: human, microsomes, Max Achievable Bioavailability.
Description: Maximum achievable bioavailability in human microsome
Data set [6] addresses T2, Sodium- and chloride-dependent glycine transporter 1 (Homo sapiens, UniProt P48067).
T2 sequence (P48067 whole entry): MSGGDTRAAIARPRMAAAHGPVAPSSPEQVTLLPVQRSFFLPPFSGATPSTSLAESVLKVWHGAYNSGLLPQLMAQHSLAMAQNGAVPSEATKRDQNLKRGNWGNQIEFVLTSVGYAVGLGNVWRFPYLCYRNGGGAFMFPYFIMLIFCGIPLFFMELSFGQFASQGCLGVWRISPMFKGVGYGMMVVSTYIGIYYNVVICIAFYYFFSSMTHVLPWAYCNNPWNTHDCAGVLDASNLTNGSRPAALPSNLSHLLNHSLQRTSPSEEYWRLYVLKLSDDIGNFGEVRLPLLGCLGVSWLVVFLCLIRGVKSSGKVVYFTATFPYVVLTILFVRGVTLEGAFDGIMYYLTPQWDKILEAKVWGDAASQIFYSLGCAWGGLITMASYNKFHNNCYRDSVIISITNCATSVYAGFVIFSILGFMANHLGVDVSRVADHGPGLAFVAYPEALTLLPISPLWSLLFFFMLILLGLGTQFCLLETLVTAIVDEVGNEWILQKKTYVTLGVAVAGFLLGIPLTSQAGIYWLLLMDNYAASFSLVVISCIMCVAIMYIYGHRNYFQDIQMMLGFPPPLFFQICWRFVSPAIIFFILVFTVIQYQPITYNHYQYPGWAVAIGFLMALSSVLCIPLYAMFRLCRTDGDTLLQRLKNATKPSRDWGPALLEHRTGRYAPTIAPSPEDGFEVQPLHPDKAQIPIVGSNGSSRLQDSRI
As to the kind of experiment: (§2) Inhibition of [3H]glycine uptake at GlyT1.

Data set [7] is described as follows: Dissociation constant, pKa of the compound. The data set is classed as physicochemical.
The target of data set [8] is Voltage-gated inwardly rectifying potassium channel KCNH2 (Homo sapiens, UniProt Q12809).
Voltage-gated inwardly rectifying potassium channel KCNH2, sequence (Q12809 whole entry): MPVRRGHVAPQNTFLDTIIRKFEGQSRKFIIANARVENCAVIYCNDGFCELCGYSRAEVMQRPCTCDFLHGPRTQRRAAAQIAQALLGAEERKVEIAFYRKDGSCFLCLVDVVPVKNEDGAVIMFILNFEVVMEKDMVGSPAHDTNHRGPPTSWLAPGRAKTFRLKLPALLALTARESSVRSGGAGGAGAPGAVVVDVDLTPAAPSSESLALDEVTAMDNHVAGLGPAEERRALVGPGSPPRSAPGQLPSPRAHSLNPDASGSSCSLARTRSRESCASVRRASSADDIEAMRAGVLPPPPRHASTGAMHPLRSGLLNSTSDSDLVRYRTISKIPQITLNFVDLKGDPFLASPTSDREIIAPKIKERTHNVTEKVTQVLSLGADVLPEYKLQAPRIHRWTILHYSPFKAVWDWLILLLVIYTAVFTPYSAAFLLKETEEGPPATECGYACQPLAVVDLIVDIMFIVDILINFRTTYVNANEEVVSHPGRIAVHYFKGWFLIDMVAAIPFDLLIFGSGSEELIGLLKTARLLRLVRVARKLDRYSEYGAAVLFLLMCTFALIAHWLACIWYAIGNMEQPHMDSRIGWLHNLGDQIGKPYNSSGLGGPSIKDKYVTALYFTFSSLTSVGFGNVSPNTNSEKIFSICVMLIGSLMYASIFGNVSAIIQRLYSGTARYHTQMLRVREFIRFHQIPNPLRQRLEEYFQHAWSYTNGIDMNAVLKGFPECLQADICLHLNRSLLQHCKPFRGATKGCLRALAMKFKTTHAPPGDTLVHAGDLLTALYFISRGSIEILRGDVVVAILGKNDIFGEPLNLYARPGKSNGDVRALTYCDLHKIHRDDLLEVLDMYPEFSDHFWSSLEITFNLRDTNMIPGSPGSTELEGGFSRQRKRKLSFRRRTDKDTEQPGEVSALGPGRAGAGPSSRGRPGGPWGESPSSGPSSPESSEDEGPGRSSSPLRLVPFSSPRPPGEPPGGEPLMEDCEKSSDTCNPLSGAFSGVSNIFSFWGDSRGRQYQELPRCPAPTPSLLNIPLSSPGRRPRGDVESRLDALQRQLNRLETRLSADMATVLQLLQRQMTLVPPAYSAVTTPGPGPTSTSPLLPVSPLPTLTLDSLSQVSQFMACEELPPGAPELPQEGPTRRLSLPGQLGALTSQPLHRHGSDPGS
Description: Inhibition of hERG potassium channel expressed in CHO cells by whole cell patch clamp method
Data set [9] has as its target T3, Sodium- and chloride-dependent glycine transporter 1 (Homo sapiens) (UniProt P48067).
T3 sequence (whole entry): T2 sequence (P48067 whole entry)
The description is as §2.

For data set [10], the target named is T4, Sodium- and chloride-dependent glycine transporter 2 (Homo sapiens) (UniProt Q9Y345).
T4 sequence (whole entry): T1 sequence (Q9Y345 whole entry)
The description is as §1.

The nature of data set [11]: Oral bioavailability in mouse. The settings on record: in vivo. The data set is classed as ADME, organism-based.
The nature of data set [12]: Clearance in mouse. It is filed as ADME, organism-based. To be noted: in vivo.
Data set [13] is described as follows: Half life in mouse. The settings on record: in vivo. It is filed as ADME, organism-based.
Data set [14] can be described thus: Volume of distribution in mouse. The settings on record: in vivo, read-out: Vss. It is filed as ADME, organism-based.
A short description of data set [15]: Ratio of drug level in brain against plasma in mouse. The settings on record: read-out: BPR. The data set is classed as ADME, organism-based.

By EC50 is commonly meant the concentration giving half of the maximal effect. By microsomal CLint is commonly meant the capacity of the preparation to metabolise the compound, expressed as a volume cleared per time. As usually defined, the pKa is the negative logarithm of the acid dissociation constant. Read a low pKa as a stronger acid or weaker base. One may read the IC50 as the concentration at which inhibition is half-maximal. In general, bioavailability refers to dose-corrected exposure relative to a reference, in per cent. High values mean much systemic uptake, low ones little systemic uptake. What is called clearance is the rate of elimination divided by the concentration. A higher clearance goes with efficient removal. What is called half-life is the time in which the quantity being followed falls by half.

`O=C1NCN(c2ccccc2)C12CCN(C1(c3ccccc3)CCCCC1)CC2` came in with a concentration giving a half-maximal response (EC50) in data set [1] greater than 30000 nM. The microsomal CLint in “in vitro [2]” was determined as 470 µL/min/mg; in the data set “in vitro [3]”, 82 µL/min/mg. Moreover, the Fh was 6% in “in vitro [4]” and 16% in the data set “in vitro [5]”.

Molecule `O=C1NCC(c2ccccc2)C12CCN(C1(c3ccccc3)CCCOC1)CC2` (stereo not drawn) returned an EC50 in [6] of 1420 nM. This molecule also returned a pKa in [7] of 7.1. The same molecule returned an IC50 in data set [8] greater than 11000 nM.

The molecule `O=C1NCC(c2ccccc2)C12CCN(C1(c3ccccc3)CCOCC1)CC2` (stereo not drawn) displayed a pKa in data set [7] of 7.71.

Turning to `O=C1NCC(c2ccc(F)cc2)C12CCN(C1(c3ccc(F)cc3)CCCCCC1)CC2` (stereo not drawn), the results for the Activity in data set [9] and in data set [10] were 245 nM and greater than 30 µM, respectively.

`CCCC1CNC(=O)C12CCN(C1(c3ccc(F)cc3)CCCCC1)CC2` (racemic): the microsomal CLint in the data set “in vitro [2]” stood at 24 µL/min/mg; in the data set “in vitro [3]”, 14 µL/min/mg. Moreover, the Fh in “in vitro [4]” amounted to 57%; in the data set “in vitro [5]” it was 53%.

`Cl.O=C1NCC(c2ccc(F)cc2)C12CCN(C1(c3ccsc3)CCCCC1)CC2` (racemic): the half-maximal effective concentration (EC50) in [6] is 99 nM. The values for the microsomal CLint in the data set “in vitro [2]” and in “in vitro [3]” were 39 µL/min/mg and 4 µL/min/mg, respectively. Besides, the Fh is 45% in the data set “in vitro [4]” and 78% in the data set “in vitro [5]”.

For the molecule `Cl.O=C1NCC(c2ccc(F)cc2)C12CCN(C1(c3cccs3)CCCCC1)CC2` (racemic), the microsomal CLint came out at 80 µL/min/mg in the data set “in vitro [2]” and 9 µL/min/mg in the data set “in vitro [3]”. Further, the figures for the Fh in the data set “in vitro [4]” and in the data set “in vitro [5]” were 28% and 64%, respectively.

As for `O=C1NCC(c2ccc(F)cc2)C12CCN(C1(c3ccc(F)cc3)CCCCC1)CC2` (stereo in doubt), the EC50 in [1] is greater than 30000 nM. Also, the bioavailability in data set [11] stood at 60%. In addition, the clearance in data set [12] worked out at 35 mL/min/kg. In data set [13], this molecule gave a half-life of 2.8 h. In data set [14], the Vd was determined as 7.6 L/kg. Moreover, the Kp in [15] worked out at 3. Besides, the pKa in data set [7] is 8.75. The values for the Fh in the data set “in vitro [4]” and in the data set “in vitro [5]” were 98% and 84%, respectively.
